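Each compound was tested at five concentrations against cells in 96-well plates for 48 hours. GI50 is the concentration that inhibits growth by half. Definition used: TGI = concentration required for complete inhibition of growth.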
Tests used:
Assay in all cases: inhibition of tumour cell growth, NCI panel, 48 h
SNB-75 CNS = system: SNB-75 CNS
LOX IMVI melanoma = system: LOX IMVI melanoma
SNB-19 CNS = system: SNB-19 CNS
NCI/ADR-RES ovarian = system: NCI/ADR-RES ovarian
CAKI-1 renal = system: CAKI-1 renal
MCF7 breast = system: MCF7 breast
HS 578T breast = system: HS 578T breast
ACHN renal = system: ACHN renal
SR leukemia = system: SR leukemia
IGROV1 ovarian = system: IGROV1 ovarian
A549 NSCLC = system: A549 NSCLC

Structure (SMILES)	GI50 (SNB-75 CNS) [µM]	TGI (SNB-75 CNS) [µM]	GI50 (LOX IMVI melanoma) [µM]	TGI (LOX IMVI melanoma) [µM]	GI50 (SNB-19 CNS) [µM]	TGI (SNB-19 CNS) [µM]	GI50 (NCI/ADR-RES ovarian) [µM]	TGI (NCI/ADR-RES ovarian) [µM]	GI50 (CAKI-1 renal) [µM]	TGI (CAKI-1 renal) [µM]	GI50 (MCF7 breast) [µM]	TGI (MCF7 breast) [µM]	GI50 (HS 578T breast) [µM]	TGI (HS 578T breast) [µM]	GI50 (ACHN renal) [µM]	TGI (ACHN renal) [µM]	GI50 (SR leukemia) [µM]	TGI (SR leukemia) [µM]	TGI (IGROV1 ovarian) [µM]	TGI (A549 NSCLC) [µM]
COc1cnc2c(c1)C(=O)c1c-2n(CCCN2CCOCC2)c(=O)c2cc(Cl)ccc12	15.1	57.1	0.152	0.532	0.31	> 100	0.259	> 100	0.342	> 100	0.0959	> 100	24.9	> 100	0.332	> 100	0.0797	> 100		
COc1cccc(N2C(Cl)C(=O)C2c2c[nH]c3ccccc23)c1 (configuration not stated)						> 100												> 100	> 100	> 100
